Measured values reported in patent US7781477B2, “Therapeutic use of N-(1H-Indolyl)-1H-indole-2-carboxamide derivatives” (Sanofi-Aventis, priority 2004, dated 2010).

Assays:
TRPV1 receptors = target: T1, TRPV1 receptors (Mus musculus, UniProt Q704Y3); experiment: Mouse corneal irritation test (capsaicin ocular instillation); format: in vivo; settings: percentage of protection against rubbing of the eye induced by 2 μl of 160 μM capsaicin, pretreatment time 1 h
T1 construct: from tissue; host or cells: living mouse, cornea (C fibers)
T1 sequence (Q704Y3 whole entry): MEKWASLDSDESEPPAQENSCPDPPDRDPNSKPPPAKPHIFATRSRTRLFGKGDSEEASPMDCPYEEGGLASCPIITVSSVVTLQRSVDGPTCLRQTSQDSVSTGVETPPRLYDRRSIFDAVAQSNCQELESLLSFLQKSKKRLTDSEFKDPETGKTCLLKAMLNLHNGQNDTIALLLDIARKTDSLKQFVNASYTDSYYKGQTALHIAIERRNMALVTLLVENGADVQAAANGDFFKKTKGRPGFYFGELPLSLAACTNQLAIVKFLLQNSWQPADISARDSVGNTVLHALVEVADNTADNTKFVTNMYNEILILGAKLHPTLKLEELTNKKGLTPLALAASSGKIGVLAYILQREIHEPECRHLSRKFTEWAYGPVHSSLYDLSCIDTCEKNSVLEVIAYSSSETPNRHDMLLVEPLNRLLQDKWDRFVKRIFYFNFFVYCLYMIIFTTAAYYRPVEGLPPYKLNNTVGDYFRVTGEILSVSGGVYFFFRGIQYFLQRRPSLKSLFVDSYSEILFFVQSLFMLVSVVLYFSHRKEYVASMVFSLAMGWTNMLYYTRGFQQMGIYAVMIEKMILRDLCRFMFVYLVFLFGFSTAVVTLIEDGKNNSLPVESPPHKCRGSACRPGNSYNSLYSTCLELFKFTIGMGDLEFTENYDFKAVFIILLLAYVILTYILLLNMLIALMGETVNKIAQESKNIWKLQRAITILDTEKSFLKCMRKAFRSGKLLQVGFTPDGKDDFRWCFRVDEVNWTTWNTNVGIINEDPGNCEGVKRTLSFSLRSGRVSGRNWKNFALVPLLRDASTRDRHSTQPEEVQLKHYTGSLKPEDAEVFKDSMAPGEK
Description: Mouse Corneal Irritation Test
The irritating nature of capsaicin is easily assessed on the cornea since this organ is one of the most innervated by C fibers. In this context, according to preliminary experiments, the application of a very small amount of capsaicin (2 μl at a concentration of 160 μM) at the surface of the cornea of an animal results in a number of kinds of stereotyped behavior related to irritation which are easy to record. These include: blinking of the eye, rubbing of the instilled eye by the ipsilateral front paw, rubbing of the face with the two front paws and scratching of the ipsilateral face by the hind paw. […] Its appearance is furthermore also normal. […] It may be concluded therefrom that the duration of action of capsaicin at these doses is less than 2 minutes. […]
In practice, the test product is administered orally and, with a delay (pretreatment time: t) which depends on the pharmacokinetic data, the animal receives the ocular instillation of 2 μl of a 160 μM capsaicin solution prepared as indicated above. During observation for 2 minutes following the instillation, the number of rubbing actions on the instilled eye by the ipsilateral front paw is recorded.
For a given animal, the percentage of protection is calculated as follows: P=100−((number of scratching actions observed/mean number of scratching actions of the group treated with the solvent)×100). […]

TRPV1 receptor = target: T2, TRPV1 receptor (Rattus norvegicus, UniProt O35433); experiment: Inhibition of the current induced by capsaicin with regard to rat DRGs (whole cell patch clamp); format: cell-based; settings: DRG neuron; % inhibition of the control capsaicin (300 nM) response; compound at 10 nM; primary culture of newborn rat DRG neurons; read-out: % Inhibition by the DRG patch technique
T2 construct: The neurons of the DRG naturally express the TRPV1 receptor; endogenous in cells; host or cells: primary culture of newborn rat dorsal root ganglion (DRG) neurons
T2 sequence (O35433 whole entry): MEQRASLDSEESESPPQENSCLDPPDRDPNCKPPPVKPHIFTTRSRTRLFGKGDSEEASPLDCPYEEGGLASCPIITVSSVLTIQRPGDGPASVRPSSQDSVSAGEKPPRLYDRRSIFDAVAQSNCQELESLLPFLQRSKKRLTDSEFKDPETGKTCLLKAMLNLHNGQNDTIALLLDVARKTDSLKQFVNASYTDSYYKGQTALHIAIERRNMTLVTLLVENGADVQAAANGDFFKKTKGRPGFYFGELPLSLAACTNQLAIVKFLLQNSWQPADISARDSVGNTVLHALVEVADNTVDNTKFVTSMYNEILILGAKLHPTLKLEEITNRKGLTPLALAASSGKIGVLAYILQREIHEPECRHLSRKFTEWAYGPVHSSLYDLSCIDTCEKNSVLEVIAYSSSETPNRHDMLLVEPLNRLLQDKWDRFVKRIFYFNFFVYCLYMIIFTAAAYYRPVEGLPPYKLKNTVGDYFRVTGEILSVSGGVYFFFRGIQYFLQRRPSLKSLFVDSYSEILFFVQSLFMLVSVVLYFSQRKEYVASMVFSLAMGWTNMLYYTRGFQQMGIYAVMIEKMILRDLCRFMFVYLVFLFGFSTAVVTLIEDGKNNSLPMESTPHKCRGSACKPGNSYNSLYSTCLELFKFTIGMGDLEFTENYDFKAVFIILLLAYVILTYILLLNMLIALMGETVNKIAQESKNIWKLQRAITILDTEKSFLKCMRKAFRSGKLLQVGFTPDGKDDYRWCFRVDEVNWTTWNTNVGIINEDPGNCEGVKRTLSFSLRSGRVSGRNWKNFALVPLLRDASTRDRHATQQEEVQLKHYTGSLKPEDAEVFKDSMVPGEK
Description: Test of the Inhibition of the Current Induced by Capsaicin with Regard to Rat DRGs
Primary Culture of Rat Dorsal Route Ganglion (DRG) Cells:
The neurons of the DRG naturally express the TRPV1 receptor.
Primary cultures of DRGs of newborn rats are prepared from 1-day-old rats. Briefly, after dissection, the ganglions are trypsinized and their cells dissociated mechanically by gentle trituration. […]
The measurement chambers (volume 800 μl) comprising the cell preparation are placed on the stage of an inverted microscope (Olympus IMT2) equipped with Hoffman optics (Modulation Contrast, New York) and are observed at a magnification of 400×. […] The overall currents (membrane potential set at −60 mV) are recorded with an Axopatch 1D amplifier (Axon Instruments, Foster City, Calif.) connected to a PC controlled by Pclamp8 software (Axon Instruments). The current plots are recorded on paper and simultaneously recorded digitally (sampling frequency 15 to 25 Hz) and acquired on the hard disk of the PC.
The application of a 300 nM capsaicin solution produces an incoming cationic current with regard to the DRG cells (voltage set at −70 mV). […] The results are expressed as % of inhibition of the control capsaicin response.

Cn1ccc2cc(NC(=O)c3cc4ccccc4n3Cc3cccc(C(F)(F)F)c3)ccc21 [Compound No. 1, N-(1-Methyl-1H-indol-5-yl)-1-(3-trifluoromethylbenzyl)-1H-indole-2-carboxamide]
% P - (t) at 60 mg/kg (p.o.) - (n = 8) (TRPV1 receptors): 26% - (1 h) | inhibition at 0.01 µM (TRPV1 receptor): 56%
